Read-outs that look alike come from different tables or passages of the source.
What was measured:
[1] = system: phosphorylation of CDK1 at Thr14 in HCC1806 cells; test: Cell lysate AlphaLISA assay measuring inhibition of phosphorylation of CDK1 Thr14; format: cell-based; details: read-out: Cellular IC50
Summary of the method: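 HCC1806 cells seeded overnight, then treated 4 h at 37 °C, 5% CO2 with compounds in DMSO; washed and lysed, lysates frozen overnight at −80 °C. CDK1 Thr14 phosphorylation read by AlphaLISA SureFire Ultra; data normalized to DMSO (0% inhibition) and 3 μM reference compound to give IC50.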

PKMYT1 = molecular target: T1, PKMYT1 (Homo sapiens, UniProt Q99640); test: ADP-Glo PKMYT1 ATP-depletion assay; details: 50 nM PKMYT1, 13.3 nM CDK1, read-out: Biochemical IC50
T1 construct: PKMYT1 (93 kD, full length, N-terminal GST tag from Signal Chem); GST (N); purchased Signal Chem
T1 sequence (Q99640 1-499): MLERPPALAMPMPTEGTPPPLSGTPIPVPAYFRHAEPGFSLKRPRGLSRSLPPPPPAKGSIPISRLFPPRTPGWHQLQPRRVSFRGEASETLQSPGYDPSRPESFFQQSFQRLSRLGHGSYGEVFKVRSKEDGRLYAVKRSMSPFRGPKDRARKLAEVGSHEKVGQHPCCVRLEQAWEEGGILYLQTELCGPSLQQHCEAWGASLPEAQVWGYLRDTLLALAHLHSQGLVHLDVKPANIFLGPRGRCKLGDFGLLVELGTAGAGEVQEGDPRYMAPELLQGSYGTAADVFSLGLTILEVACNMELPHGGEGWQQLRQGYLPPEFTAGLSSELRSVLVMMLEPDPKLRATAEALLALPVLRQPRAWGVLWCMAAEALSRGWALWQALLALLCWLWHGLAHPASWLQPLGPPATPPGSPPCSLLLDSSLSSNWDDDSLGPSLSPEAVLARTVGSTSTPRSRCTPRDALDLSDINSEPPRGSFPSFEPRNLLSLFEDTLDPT
Summary of the method: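 Full-length N-terminal GST-tagged PKMYT1 (50 nM) with GST-CDK1 (13.3 nM) as substrate and 88 µM ATP, in Hepes buffer with MgCl2, MnCl2, DTT and BSA; DMSO <1%. Incubated 120 min at RT. ADP formed was quantified by ADP-Glo luminescence and used to derive biochemical IC50.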

Compound	IC50 ([1]; Homo sapiens, HCC1806, 4 h)	IC50 (PKMYT1)	IC50 ([1]; 4 hours)
NC(=O)c1nc2cccnc2c(-c2cccc3c2CCN3C=O)c1N [Compound 162]	≥ 5000 nM	≥ 5000 nM	
NC(=O)c1cc(-c2cccc3[nH]ncc23)c2ccccc2n1 [Compound 14, 4-(1H-Indazol-4-yl)quinoline-2-carboxamide]	≥ 5000 nM	≥ 5000 nM	
Cc1c(O)cccc1-c1c(N)c(C(N)=O)cc2nc(C(F)(F)F)c(O)nc12 (atropisomer, axis not shown) [Compound 136]		≥ 5000 nM	≥ 5000 nM
NC(=O)c1nc2cccnc2c(-c2cccc3[nH]cnc23)c1N [Compound 181]	≥ 5000 nM	≥ 5000 nM	
Cc1ccc(O)c(C)c1-c1c(N)c(C(N)=O)cc2nccnc12 (single isomer, unassigned) [Compound 85, (M)-7-amino-8-(3-hydroxy-2,6-dimethylphenyl)quinoxaline-6-carboxamide]		1000 to 5000 nM	≥ 5000 nM
Cc1ccc2[nH]ncc2c1-c1c(N)c(C(N)=O)cc2nccnc12 (single isomer, unassigned) [Compound 79, (M)-7-amino-8-(5-methyl-1H-indazol-4-yl)quinoxaline-6-carboxamide]		≥ 5000 nM	≥ 5000 nM
NC(=O)c1nc2cccnc2c(-c2ccc(F)c3[nH]ncc23)c1N [Compound 190]	1000 to 5000 nM	50 to 500 nM	
Cc1cc2nc(N)sc2cc1-c1c(N)c(C(N)=O)cc2nccnc12 [Compound 311]	≥ 5000 nM	1000 to 5000 nM	
COc1ccc2nc(C(N)=O)c(N)c(-c3c(C)ccc(O)c3C)c2c1 [Compound 48, 3-Amino-4-(3-hydroxy-2,6-dimethylphenyl)-6-methoxyquinoline-2-carboxamide]	50 to 500 nM	50 to 500 nM	
NC(=O)c1cc2nccnc2c(-c2cc(O)ccc2F)c1N [Compound 114, 7-Amino-8-(2-fluoro-5-hydroxyphenyl)quinoxaline-6-carboxamide]	1000 to 5000 nM	50 to 500 nM	
COc1nc2cc(C(N)=O)c(N)c(-c3cccc(O)c3C)c2nc1C (atropisomer, axis not shown) [Compound 187]		< 50 nM	50 to 500 nM
COc1cncc(C2=c3ncccc3=NC(C(N)=O)C2N)c1C (stereo not shown) [Compound 186]	500 to 1000 nM	50 to 500 nM	
NC(=O)c1nc2cccnc2c(-c2ccc3c[nH]nc3c2)c1N [Compound 204]	≥ 5000 nM	1000 to 5000 nM	
CCOc1ccc2nc(C(N)=O)c(N)c(-c3cccc(O)c3C)c2n1 [Compound 154]	50 to 500 nM	< 50 nM	
COc1nc2cc(C(N)=O)c(N)c(-c3cccc(O)c3C)c2nc1C (atropisomer, axis not shown) [Compound 193]		≥ 5000 nM	≥ 5000 nM
Cc1ccc2[nH]ncc2c1-c1c(N)c(C(N)=O)cc2ncccc12 [Compound 144]	1000 to 5000 nM	50 to 500 nM	
Cc1c(O)cncc1-c1c(N)c(C(N)=O)nc2cccnc12 [Compound 155]	500 to 1000 nM	50 to 500 nM	
Cc1c(O)cc(Cl)cc1-c1c(N)c(C(N)=O)nc2cccnc12 (atropisomer, axis not shown) [Compound 290]		50 to 500 nM	50 to 500 nM
COc1nc2c(-c3cccc(O)c3C)c(N)c(C(N)=O)cc2nc1C (atropisomer, axis not shown) [Compound 224]		1000 to 5000 nM	≥ 5000 nM
CCNc1cnc2c(-c3c(C)ccc(O)c3C)c(N)c(C(N)=O)cc2n1 [Compound 326]	1000 to 5000 nM	50 to 500 nM	
Cc1c(O)cccc1-c1c(N)c(C(N)=O)nc2cccc(F)c12 [Compound 56, 3-Amino-5-fluoro-4-(3-hydroxy-2-methyl-phenyl)quinoline-2-carboxamide]	500 to 1000 nM	50 to 500 nM	
Cc1ccc(O)c(C)c1-c1c(N)c(C#N)cc2nccnc12 (atropisomer, axis not shown) [Compound 302]		1000 to 5000 nM	≥ 5000 nM
Cc1cc(O)c(C)c(-c2c(N)c(C(N)=O)nc3cccnc23)c1 (atropisomer, axis not shown) [Compound 286]		500 to 1000 nM	≥ 5000 nM

— patent US20260176270A1 (Exelixis, Inc., priority 2022, published 2026)
